These are literature values, as cited in patent publication US9192596B2, “Self-emulsifying pharmaceutical compositions of rhein or diacerein” (WOCKHARDT RESEARCH CENTRE, priority 2007, dated 2015).

For series [1] the following is noted: inherent pharmacokinetic property; rhein-glucuronide converted to rhein-9-anthrone in colon.
Assay in series [2]: not given
The source holds these as a separate data set.

Counter-ions that a name gives are not always drawn.

For `CC(=O)Oc1cccc2c1C(=O)c1c(OC(C)=O)cc(C(=O)O)cc1C2=O` [diacerein, 4,5-bis(acetyloxy) 9,10-dihydro-4,5-dihydroxy-9,10-dioxo-2-anthracenecarboxylic acid], the “soft stool effect expected due to enterohepatic circulation” value in series [1] is 30-40%. Also, the solubility entry (water, alcohols, acetone, dichloromethane and chloroform) is recorded as “practically insoluble”. In addition, the pKa (as a rule, the negative logarithm of the acid dissociation constant) in series [2] is recorded as 4.5. For the same compound, the stability entry in series [2] (acidic and alkaline conditions) is “instability under acidic and alkaline conditions”.
Turning to `CC(=O)Oc1cccc2c1C(=O)c1c(OC(C)=O)cc(C(=O)O)cc1C2=O` [potassium salt of diacerein], the solubility in water result (EP 243,968) is recorded as “water-soluble”.
